In patent publication US20110110918A1, “ROLE OF (DE)ACETYLATION IN COUNTERACTING PROTEIN AGGREGATION” (Rijksuniversiteit Groningen, priority 2008, published 2011):
“Also recorded” adds a separate entry of the source.

What was measured:
Type in all cases: cell-based, Human
HDQ119 aggregation = assay: Filter trap assay of HDQ119 aggregation in HEK-293 cells cotransfected with EYFP-HDQ119 and DnaJB6 or DnaJB8; settings: for ability of DnaJB8 and DnaJB6 to suppress HDQ119 aggregation in presence of HDAC inhibitor: HEK-293 expressing DnaJB6 or DnaJB8 (Tet on), Trichostatin A 100 and 500 nM, Tubacin 3 and 5 μM, Niltubacin 3 and 5 μM
Experimental: Cell culture and transient infections. Flp-In T-Rex HEK293 cells (Human embryonic kidney 293) stably expressing the tetracycline (tet) repressor were obtained from Invitrogen. Cells were cultured in DMEM (Gibco) supplemented with 10% foetal bovine serum (Sigma) and 100 units/ml penicillin and 100 μg/ml streptomycin (Invitrogen). 5 μg/ml Blasticidine (Sigma) and 100 μg/ml of Zeocin (Invitrogen) were added to the cultures. Cultures were maintained at 37° C. and 5% CO2 in a humidified incubator. For transient transfections, cells were grown to 50-60% confluence in 35 mm-diameter dishes coated with 0.001% of poly-L-lysine (Sigma) and on coated coverslips for confocal microscopy analyses. Cells were transfected with a total of 1 μg of DNA using Lipofectamine (Gibco) according to the manufacturer instructions.
Plasmids. The construction of pHDQ119-EYFP driving the expression of a fragment of exon-1 of huntingtin fused to the enhanced yellow fluorescent protein was previously described (Rujano et al., 2006). The construction of the tetracycline inducible HSP overexpression plasmids is described by Hageman et al. (manuscript in preparation). Briefly, first the V5 sequence containing a Kozak initiation codon and lacking a stop codon was inserted in pcDNA5/FRT/TO by oligo cloning. Subsequently, the coding sequence of each gene was amplified and the PCR products where purified, cleaved with the respective enzymes and ligated in frame in the pcDNA5/FRT/TO-V5 vector cleaved with the same set of enzymes. Presence of the correct insert was verified using DNA sequencing. Expression of the proteins at the expected molecular mass was verified by Western Not analysis against the V5-tag.
(§1) HDAC inhibition. […] Cell extracts prepared 36 hours after treatment were processed for filter trap essays and western Notting as described before. Increase in acetylated tubulin and histones as detected by western Notting was used as test for functionality.
Cell extracts and sample preparation. 24 hours after transfection cells were recovered by trypsinization, pelleted and resuspended in 1 ml of PBS. The cell suspension was centrifuged at 6000 rpm for 5 min at RT and the pellet was resuspended in 75 μl of RIPA buffer containing 2% SDS supplemented with protease inhibitors and sonicated. Protein content was determined with the DC protein essay (Bio-RAD). Western Not samples were prepared at a final concentration of 1 μg/μl in SDS-PAGE loading buffer and heated for 5 min at 100° C. Filter trap samples were prepared at a final concentration of 100 ng/μl, 20 ng/μl and 4 ng/μl in FTA buffer (10 mM Tris-Cl pH 8.0, 150 mM NaCl and 50 mM dithiothreitol)+2% SDS and heated for 5 min at 100° C. Samples were used immediately or kept frozen at −20° C.
Filter trap assay. Filter trap assay was performed based on the protocol described by Carra et al. (2005). Briefly, 10, 2 and 0.4 μg of protein extracts were applied onto a 0.2 μm pore Cellulose Acetate membrane prewashed with FTA+0.1% SDS. Mild suction was applied and the membrane was washed 3 times with the same buffer. […] For quantitative analysis, relative intensity of the bands was measured using GelPro Analyzer 4.5 gel analyzer software.

HDAC-6 = assay: Western blot of acetylated tubulin as test for HDAC inhibitor functionality; settings: control cells or cells expressing DnaJB8
Experimental: as §1
Western blot analysis. […] Proteins were transferred onto nitrocellulose membranes and probed with monoclonal anti-GFP antibody GL-8 (Clontech) at a 1:5000 dilution and monoclonal anti-V5 antibody (Invitrogen) at a 1:5000 dilution. GAPDH was used a loading control and was detected with a monoclonal antibody (RDI Research Diagnostics) at 1:1000 dilution. Blots were incubated with HRP-conjugated anti-mouse secondary antibody (Amersham) at 1:5000 dilution, and visualization was made using enhanced chemiluminescence and Hyperfilm (ECL, Amersham).

DNAJB8 = assay: Mass spectrometry of immunoprecipitated DNAJB8 from TSA-treated cells; settings: TSA-treated cells versus control sample, in-gel digestion
Experimental: Immunoprecipitation. Cells from a 35 mm dish were washed twice with PBS and lysed in 500 μl RIPA (25 mM Tris-HCl pH 7.6, 150 mM NaCl, 1% NP-40, 1% sodium deoxycholate, 0.1% SDS). Lysis was completed by passing the extracts five times through a 21-gauge needle. Subsequently, cell extracts were centrifuged twice at 10,000 G for 10 minutes at 4° C. and the supernatant transferred. Lysates were cleared with agarose A/G beads for 1 hour at 4° C. in a rotator. In the mean time, 0.5 μg V5 anti-body was incubated with […] agarose A/G plus agarose beads (Santa Cruz Biotechnology) and 50 μl RIPA for 1 hour at 4° C. Thereafter, samples were centrifuged at 1000 g for 30 seconds and the supernatant was transferred to a new tube together with 50 μl of the pre-incubated antibody and incubated for 1 more hour in a rotator. Thereafter, the beads were washed twice with RIPA and twice with PBS. After the final wash, 30 μl of RIPA was added together with 30 μl Laemmli sample buffer and boiled for 5 minutes. 10 μl of the extract was loaded and subjected for Western blot analysis.
Mass Spectometry. […]
The digested material was analyzed by nanoLC-MS/MS on an Ultimate 3000 system (Dionex, Amsterdam, The Netherlands) connected on-line with a LTQ-Orbitrap-XL mass spectrometer (ThermoFisher Scientific, San Jose, Calif.). […]

Molecule	ability of DnaJB8 and DnaJB6 to suppress HDQ119 aggregation in presence of HDAC inhibitor (HDQ119 aggregation)	tubulin acetylation (cellular content of acetylated tubulin) (HDAC-6)	DnaJB8 and DnaJB6 activity on HDQ119 aggregation (HDQ119 aggregation; 0.5 μM TSA)	HDQ119 aggregation in cells transfected with the empty vector (HDQ119 aggregation; empty plasmid (FRT TO), HEK-293, different concentrations of TSA)	acetylated DNAJB8 peptides (K61, K216, K223) detected by mass spectrometry (DNAJB8)	suppression of poly-Q huntingtin (HDQ119) aggregation by overexpressed DnaJB8 variant (HDQ119 aggregation; Tet on, 24 h after cotransfection, filter trap 10, 2 and 0.4 ug protein/slot)
O=C(CCCCCCC(=O)Nc1ccc([C@H]2O[C@@H](CSc3nc(-c4ccccc4)c(-c4ccccc4)o3)C[C@@H](c3ccc(CO)cc3)O2)cc1)NO [Tubacin]	did not result in inhibition of DnaJB8 and DnaJB6 activity	increases the cellular content of acytelated Tubulin; also recorded: equally effective in increasing tubulin acetylation	–	–	–	–
CC(/C=C/C(=O)NO)=C\[C@@H](C)C(=O)c1ccc(N(C)C)cc1 [TSA, Trichostatin A]	but not after HDAC inhibition with TSA; also recorded: stronly reduced; also recorded: concentration dependent loss of the ability of DnaJB8 and DnaJB6 to reduce HQ119 aggregation	increases the cellular content of acytelated Tubulin; also recorded: equally effective in increasing tubulin acetylation	completely annihilated DnaJB8 and DnaJB6 activity	slightly enhanced HDQ119 aggregation	3 peaks in the TSA-treated samples that were absent in the control sample	–
wild type DnaJB8: member of the Hsp40 family, chaperone counteracting protein aggregation; V5-tagged, tet-inducible overexpression (protein, UniProt Q8NHS0 1-232, looked up, V5 tag, member of the Hsp40 family, chaperone counteracting protein aggregation; V5-tagged, tet-inducible overexpression) DnaJ homolog subfamily B …: MANYYEVLGVQASASPEDIKKAYRKLALRWHPDKNPDNKEEAEKKFKLVSEAYEVLSDSKKRSLYDRAGCDSWRAGGGASTPYHSPFDTGYTFRNPEDIFREFFGGLDPFSFEFWDSPFNSDRGGRGHGLRGAFSAGFGEFPAFMEAFSSFNMLGCSGGSHTTFSSTSFGGSSSGSSGFKSVMSSTEMINGHKVTTKRIVENGQERVEVEEDGQLKSVTVNGKEQLKWMDSK	–	–	–	–	–	substantially suppressed aggregation of poly-Q huntingtin
